Test results from patent US12544365B2, “Pharmaceutical combination of an EP4 antagonist and immune checkpoint inhibitors for the treatment of tumours” (ROTTAPHARM BIOTECH S.R.L., priority 2019, dated 2026).

How the values were obtained:
[1] = Physical and chemical stability testing of solid forms (mechanical, thermal stress)
[2] = tested on: RANK-L gene expression in MDA-MB-231 cells; experiment: RANK-L gene expression in MDA-MB-231 cells stimulated with PGE2, RT-PCR; assay type: cell-based, human; conditions: 10 μM compound + 10 μM PGE2, 24 hours
Procedure: The human mammary gland adenocarcinoma MDA-MB-231 cells were obtained from ATCC and grown according to the instructions provided.
Cells were treated with 10 μM PGE2+Compound 1 10 μM for 24 hours. Total RNA was purified using the ABI Prism 6100 Nucleic Acid PrepStation (Applied Biosystems, Foster City, CA, USA) and retrotranscribed using the High-Capacity cDNA Reverse Transcription Kit (Thermo Fisher Scientific). RT-PCR analysis was performed using the Applied Biosystems 7500 Fast Real-Time PCR System using specific TaqMan assays (Hs00243522_m1; Thermo Fisher Scientific) and, as an endogenous control, the 18S Pre-Developed TaqMan® Assay (Thermo Fisher Scientific). The data analysis, with normalisation on 18S amplified values, was done following Thermo Fisher Scientific specific instructions for gene expression relative quantification. All individual data are the result of at least three different analyses for each sample.
MDA-MB-231 cells treated with 10 μM PGE2+Compound 1 10 μM for 24 hours and the levels of RANKL gene expression were evaluated by quantitative RT-PCR.

[3] = tested on: Th-17 cells differentiation of human CD4+ naïve T cells; experiment: Ex vivo human Th-17 cells differentiation (flow cytometry); assay type: cell-based; conditions: 0.03 μM PGE2, 48 hours
Procedure: Peripheral blood mononuclear cells (PBMC) were isolated from healthy volunteers using density gradient centrifugation and CD4+naïve T cells were enriched from PBMCs using human naïve CD4+ T cell isolation kit (Miltenyi Biotech). Isolated CD4+ T cells were maintained in RPMI medium and differentiated toward Th-17 cells by stimulation with IL-12 and IL-2, both 5 ng/ml in combination with 1.5 ng/ml of antibodies anti CD3 and anti CD28 and 0.03 μM PGE2+Compound 1 at concentration of 0.01-0.03-0.1-0.3 μM for 48 hours.
At the end of incubation time cells were stained with fluorescence-conjugated antibodies specific for CD4, CCR6, CD45, CD25 and IL-17 (all from BD Bioscience). Finally, the number of Th-17 cells was determined by flow cytometry and the events were measured by Fluorescence Activated Cell Sorter (FACS; BD Bioscience) and analyzed with dedicated software.

[4] = tested on: TNF-α gene expression in human THP-1 macrophages; experiment: TNF-α gene expression in THP-1 cells differentiated to macrophages (LPS + PGE2), RT-PCR; assay type: cell-based; conditions: LPS 10 ng/ml + PGE2 10 nM, 3 hours, concentration as low as 0.1 μM
Procedure: The human monocyte cell line THP-1, obtained from the ATCC, was grown according to the instructions provided. THP-1 cells were differentiated to macrophages with 100 nM phorbol 12-myristate 13-acetate (PMA) (Sigma Aldrich) for 4 days. Macrophages were then stimulated with lipopolysaccharide (LPS) (Sigma Aldrich) 10 ng/ml and PGE2 0.01 μM for 3 hours. Total RNA was purified using the ABI Prism 6100 Nucleic Acid PrepStation (Applied Biosystems, Foster City, CA, USA) and retrotranscribed using the High-Capacity cDNA Reverse Transcription Kit (Thermo Fisher Scientific). RT-PCR analysis was performed using the Applied Biosystems 7500 Fast Real-Time PCR System using specific TaqMan assays (number Hs00174128_m1; Thermo Fisher Scientific) and, as an endogenous control, the 18S Pre-Developed TaqMan® Assay (Thermo Fisher Scientific). The data analysis, with normalisation on 18S amplified values, was done following Thermo Fisher Scientific's specific instructions for gene expression relative quantification. All individual data are the result of at least three different analyses for each sample.
To evaluate the Compound 1 potential in counteracting the PGE2 induced inhibition of TNF-α gene expression in human macrophages, THP-1 cells were differentiated to macrophages and subsequently treated with LPS 10 ng/ml plus PGE2 10 nM+Compound 1 in the 0.01 μM to 10 μM concentrations range for 3 hours.

[5] = tested on: CT26 cancer cell tumours; experiment: CT26 syngeneic model of mouse colorectal cancer in Balb/c mice; assay type: in vivo; conditions: compounds 30 mg/kg oral daily day 7-23; anti PD-1 i.p. 20 mg/kg day 8, 10 mg/kg days 13, 19, 22
Procedure: Male Balb/c mice 4-6 weeks old were housed five per cage in a temperature and humidity controlled room with a 12h/12h light/dark cycle. Throughout the experiment the animals had free access to food and water. The Balb/c mice were randomly divided into 6 groups (n=15 in each group): vehicle, Compound 1, Compound 2, anti PD-1, Compound 1+anti PD-1, Compound 2+anti PD-1 group.
CT26 cells were purchased from ATCC and cultured in Dulbecco's Modified Eagle's Medium (DMEM; ThermoFisher Scientific) supplemented with 10% fetal bovine serum (FBS; Sigma Aldrich) at 37° C. in an incubator with 5% CO2. Cells were sub-cultured twice a week until the number of cells needed for inoculation was obtained.
On the day of transplantation (day 0) logarithmic growing phase cells were harvested, diluted in PBS and 10^6 cells in 0.2 ml of PBS were subcutaneously inoculated into the lateral abdominal region of each mouse using a 26G syringe.
On day 7 after inoculation the mice were randomized into the 6 treatment groups each of 15 animals receiving respectively vehicle, Compound 1, Compound 2, anti PD-1 and the combination therapies. […]
Tumour sizes (mm^3) were evaluated twice a week by using a digital caliper. The tumour volumes were calculated measuring the tumour lengths along the major and minor axis and using the formula: Volume=[[…]]/2.

[6] = PK experiments in rat; conditions: in vivo, po
[7] = tested on: Treg differentiation of human CD4+ naïve T cells; experiment: Ex vivo human T regulatory cells differentiation (flow cytometry); assay type: cell-based; conditions: 0.1 μM compound, 0.03 μM PGE2, 144 hours
Procedure: Peripheral blood mononuclear cells (PBMC) were isolated from healthy volunteers using density gradient centrifugation and CD4+naïve T cells were enriched from PBMCs using human naïve CD4+ T cell isolation kit (Miltenyi Biotech). Isolated CD4+ T cells were maintained in RPMI medium and differentiated toward a Treg phenotype using two interleukins, namely, rIL23 and rIL-1B, both at a concentration of 10 ng/ml and co-stimulated with PGE2 at 30 nM concentration over a 144 hours incubation period.
At the end of incubation cells were stained with fluorescence conjugated antibodies specific for CD3, CD4, FoxP3, CD25, IL35 and CRTH2 (all from BD Bioscience). Finally, the number of Treg cells was determined by flow cytometry and the events were measured by Fluorescence Activated Cell Sorter (FACS; BD Bioscience) and analyzed with dedicated software.

O=C([O-])c1ccc(C2(NC(=O)[C@H]3CC4(CCN3Cc3ccc(C(F)(F)F)cc3)CC4)CC2)cc1.[Na+] [Compound 1, sodium (R)-4-(1-(6-(4-(trifluoromethyl)benzyl)-6-azaspiro[2.5]octane-5-carboxamido)cyclopropyl)benzoate]
thermodynamic stability of the form [1]: most thermodynamically stable anhydrous form | physical stability (conversion to amorphous form) ([1]; mechanical or thermal stress): more stable towards amorphization by thermal stress | RANK-L gene expression vs 10 μM PGE2 [2]: markedly decreased | concentration at which plateau of maximal effect on Th-17 cells is reached [3]: above 0.1 μM | number of naïve Th-17 cells ([3]; 0.01-0.3 μM): marked decrease | TNF-α gene expression vs cells treated with PGE2+LPS only [4]: two to three fold increase | effect on tumour growth (tumour volume) [5]: mild inhibitory effect on cancer growth starting at the second week of treatment | Tmax [6]: 1 h | Treg cell differentiation [7]: significantly decreased
